# Reference: patent publication US20240150342A1, “ESTROGEN-RELATED RECEPTOR ALPHA MODULATORS” (LEAD PHARMA HOLDING B.V., priority 2019, published 2024)
# Target: T1, ERRα ligand binding domain (ERRα-LBD) (Homo sapiens, UniProt P11474)
# T1 construct: made in house; host or cells: E. coli
# T1 sequence (P11474 193-421 limits assumed): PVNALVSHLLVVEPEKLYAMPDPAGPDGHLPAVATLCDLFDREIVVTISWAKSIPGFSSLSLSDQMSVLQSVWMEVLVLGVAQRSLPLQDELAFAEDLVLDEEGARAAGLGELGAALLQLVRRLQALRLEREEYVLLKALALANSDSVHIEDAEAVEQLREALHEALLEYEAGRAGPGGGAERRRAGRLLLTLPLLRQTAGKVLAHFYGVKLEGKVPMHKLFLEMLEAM
# Assay: ERRα AlphaScreen Assay
# Assay type: biochemical
# Conditions: disruption of binding of ERRα-LBD protein to biotin-PGC1α-3 co-activator peptide; read-out: mean pIC50 (converted)
# Description: This assay was based on the knowledge that nuclear receptors interact with cofactors in a ligand dependent matter. The sites of interaction have been mapped to LXXLL motifs that are present in the co-activator sequences. Short peptide sequences that contain the LXXLL motif mimic the behavior of full length co-activators.
# The ERRα AlphaScreen Assay described here relies on the interaction of the co-activator peptide with purified bacterial- expressed ERRα ligand binding domain (ERRα-LBD); upon ligand binding, the ERRα protein can undergo a conformational change resulting in a loss of co-activator binding.
# Compounds of the present invention were tested for their ability to disrupt binding of ERRα-LBD protein to co-activator peptide using AlphaScreen® Technology (Perkin Elmer). ERRα-LBD protein was expressed in E. coli as a 6×His Small Ubiquitin-like Modifier (SUMO) fusion. Bacterial expressed 6His-SUMO-ERRα-LBD protein was purified using affinity chromatography. All experiments were performed at room temperature in 384-well white non-binding plates (Greiner) using 50 mM Tris-HCl pH 7.5, 100 mM NaCl, 0.1% Pluronic F-127, 0.05% BSA and 5 mM TCEP as the buffer. Final DMSO concentration was 1% in the assay. Compounds were assayed in triplicate and: incubated with 0.81 nM ERRα-LBD protein and 10 μg/mL streptavidin donor beads and 10 μg/mL Ni-chelate acceptor beads for 1 hour at room temperature; followed by a 2-hour incubation with 15 nM biotin-PGC1α-3 peptide (QRRPCSELLKYLTTNDDPP) corresponding to amino acids 202 to 220.
# The AlphaScreen signal was measured using an Envision Xcite plate reader (Perkin Elmer). Data was normalized, and curve fitting analysis was performed in GraphPad Prism 7 using a four-parameter dose-response fit.
row,IC50 [nM],Structure (SMILES)
1,100 to 1000,"COc1cc(C2CC(=O)Nc3n[nH]cc32)ccc1Oc1ccc2c(c1)CCC2 (centres unmarked) [Example 49, 4-[4-(2,3-dihydro-1H-inden-5-yloxy)-3-methoxyphenyl]-2H, 4H, 5H, 6H,7H-pyrazolo[3,4-b]pyridin-6-one]"
2,10 to 100,"CC(C)(C)c1cc(C#N)ccc1Oc1ccc(C2CC(=O)Nc3n[nH]cc32)cc1 (centres unmarked) [Example 53, 3-tert-butyl-4-(4-{6-oxo-2H,4H,5H,6H,7H-pyrazolo[3,4-b]pyridin-4-yl}phenoxy)benzonitrile]"
3,10 to 100,"COc1cc(Oc2ccc(C3CC(=O)Nc4n[nH]cc43)cc2)cc(C(F)(F)F)c1 (centres unmarked) [Example 54, 4-{4-[3-methoxy-5-(trifluoromethyl)phenoxy]phenyl}-2H,4H,5H,6H,7H-pyrazolo[3,4-b]pyridin-6-one]"
4,10 to 100,"Cc1cc(C2CC(=O)Nc3n[nH]cc32)ccc1Oc1ccc(C#N)cc1C(C)(C)C (centres unmarked) [Example 55, 3-tert-butyl-4-(2-methyl-4-{6-oxo-2H,4H,5H,6H,7H-pyrazolo[3,4-b]pyridin-4-yl}phenoxy)benzonitrile]"
5,10 to 100,"COc1cc(Oc2ccc(C3CC(=O)Nc4n[nH]cc43)cc2C)cc(C(F)(F)F)c1 (centres unmarked) [Example 56, 4-{4-[3-methoxy-5-(trifluoromethyl)phenoxy]-3-methylphenyl}-2H,4H,5H,6H,7H-pyrazolo[3,4-b]pyridin-6-one]"
6,100 to 1000,"O=C1CC(c2ccc(Oc3ccccc3S(F)(F)(F)(F)F)cc2)c2c[nH]nc2N1 (centres unmarked) [Example 59, 4-{4-[2-(pentafluoro-λ^6-sulfanyl)phenoxy]phenyl}-2H,4H,5H,6H,7H-pyrazolo[3,4-b]pyridin-6-one]"
7,10 to 100,"COc1cc(C2CC(=O)Nc3n[nH]cc32)ccc1Oc1ccc(C(=O)O)cc1C(C)(C)C (centres unmarked) [Example 61, 3-tert-butyl-4-(2-methoxy-4-{6-oxo-2H,4H,5H,6H,7H-pyrazolo[3,4-b]pyridin-4-yl}phenoxy)benzoic acid]"
8,10 to 100,"COc1cc(C2CC(=O)Nc3n[nH]cc32)ccc1Oc1cc(C)cc(C)c1 (centres unmarked) [Example 64, 4-[4-(3,5-dimethylphenoxy)-3-methoxyphenyl]-2H,4H,5H,6H,7H-pyrazolo[3,4-b]pyridin-6-one]"
9,100 to 1000,"COc1cc(C2CC(=O)Nc3n[nH]cc32)ccc1Oc1ccc(C(F)(F)F)cc1C (centres unmarked) [Example 65, 4-{3-methoxy-4-[2-methyl-4-(trifluoromethyl)phenoxy]phenyl}-2H,4H,5H,6H,7H-pyrazolo[3,4-b]pyridin-6-one]"
10,100 to 1000,"COc1cc(C2CC(=O)Nc3n[nH]cc32)ccc1Oc1ccc(C)cc1C (centres unmarked) [Example 66, 4-[4-(2,4-dimethylphenoxy)-3-methoxyphenyl]-2H,4H,5H,6H,7H-pyrazolo[3,4-b]pyridin-6-one]"

# Further lines, the compound ahead of its results:
row,Structure (SMILES),IC50 [nM]
1,"COc1cc(C2CC(=O)Nc3n[nH]cc32)ccc1Oc1cccc2c1OC(C)(C)C2 (centres unmarked) [Example 48, 4-{4-[(2,2-dimethyl-2,3-dihydro-1-benzofuran-7-yl)oxy]-3-methoxyphenyl}-2H,4H,5H,6H,7H-pyrazolo[3,4-b]pyridin-6-one]",10 to 100
2,"COc1cc(Oc2ccc(C3CC(=O)Nc4n[nH]cc43)cc2Br)cc(C(F)(F)F)c1 (centres unmarked) [Example 52, 4-{3-bromo-4-[3-methoxy-5-(trifluoromethyl)phenoxy]phenyl}-2H,4H,5H,6H,7H-pyrazolo[3,4-b]pyridin-6-one]",10 to 100
3,"COc1cc(Oc2ccc(C3CC(=O)Nc4n[nH]cc43)cc2F)cc(C(F)(F)F)c1 (centres unmarked) [Example 57, 4-{3-fluoro-4-[3-methoxy-5-(trifluoromethyl)phenoxy]phenyl}-2H,4H,5H,6H,7H-pyrazolo[3,4-b]pyridin-6-one]",10 to 100
4,"O=C1CC(c2ccc(Oc3ccccc3S(F)(F)(F)(F)F)c(OC(F)(F)F)c2)c2c[nH]nc2N1 (centres unmarked) [Example 58, 4-{4-[2-(pentafluoro-λ^6-sulfanyl)phenoxy]-3-(trifluoromethoxy)phenyl}-2H,4H,5H,6H,7H-pyrazolo[3,4-b]pyridin-6-one]",10 to 100
5,"O=C1CC(c2ccc(Oc3ccccc3C(F)(F)F)c(OC(F)(F)F)c2)c2c[nH]nc2N1 (centres unmarked) [Example 60, 4-[3-(trifluoromethoxy)-4-[2-(trifluoromethyl)phenoxy]phenyl]-2H,4H,5H,6H,7H-pyrazolo[3,4-b]pyridin-6-one]",100 to 1000
6,"COc1cc(-c2cc(=O)[nH]c3n[nH]cc23)ccc1Oc1ccc(C#N)cc1C(F)(F)F [Example 71, 4-(2-methoxy-4-{6-oxo-2H,6H,7H-pyrazolo[3,4-b]pyridin-4-yl}phenoxy)-3-(trifluoromethyl)benzonitrile]",100 to 1000
7,"COC(=O)C1C(=O)Nc2n[nH]cc2C1c1ccc(Oc2cc(C(F)(F)F)cc(C(F)(F)F)c2)c(OC)c1 (centres unmarked) [Example 72, methyl 4-{4-[3,5-bis(trifluoromethyl)phenoxy]-3-methoxyphenyl}-6-oxo-2H,4H,5H,6H,7H-pyrazolo[3,4-b]pyridine-5-carboxylate]",100 to 1000
8,"COc1cc(C2CC(=O)Nc3c[nH]cc32)ccc1Oc1cc(C(F)(F)F)cc(C(F)(F)F)c1 (centres unmarked) [Example 76, 4-{4-[3,5-bis(trifluoromethyl)phenoxy]-3-methoxyphenyl},2H,3H,4H,6H-pyrrolo[3,4-b]pyridin-2-one]",10 to 100
9,"COc1cc(C2CC(=O)Nc3n[nH]cc32)ccc1Oc1cc(C(F)F)cc(C(F)(F)F)c1 (centres unmarked) [Example 77, 4-{4-[3-(difluoromethyl)-5-(trifluoromethyl)phenoxy]-3-methoxyphenyl}-2H,4H,5H,6H,7H-pyrazolo[3,4-b]pyridin-6-one]",10 to 100
10,"COc1cc(C2CC(=O)Nc3n[nH]cc32)ccc1Oc1ccc(C(F)(F)F)cc1C(F)F (centres unmarked) [Example 78, 4-{4-[2-(difluoromethyl)-4-(trifluoromethyl)phenoxy]-3-methoxyphenyl}-2H,4H,5H,6H,7H-pyrazolo[3,4-b]pyridin-6-one]",10 to 100
